Source: patent US20190183922A1, “NOVEL ACTIVE IMMUNOMODULATORY AGENT AND COMPOSITION CONTAINING SAME” (UNIVERSITE CLERMONT AUVERGNE, priority 2016, published 2019)
“And” between values parts separate entries of the source, which are not always exact repeats. Identical values can stand only once.

System: co-culture of human dermal endothelial cells (HMVECs) and normal human dermal fibroblasts (NHDFs)
Assay: Formation of pseudotubes in an HMVEC+NHDF co-culture (anti-vWF immunolabelling, image analysis)
Format: cell-based
Method: The effects of the high-molecular-weight sulphated polysaccharide (HMWP) on the formation of pseudotubes was studied in a co-culture of human dermal endothelial cells (HMVECs) and normal human dermal fibroblasts (NHDFs), in basal condition or stimulated by VEGF (analysis by immunolabelling in situ).
The HMVEC and NHDF cells in co-culture were seeded in 96-well plates and cultured for 24 hours in culture medium.
The culture medium used is as follows: • EBM-2 (Endothelial cell basal medium 2) supplemented with 5% foetal calf serum (FCS), rhEGF, rhFGF, R3 IGF-1, hydrocortisone, vitamin C, gentamycin, • DMEM supplemented with 2 mM L-glutamine, 50 U/ml penicillin, 50 μg/ml streptomycin and 10% FCS.
The medium was then replaced with test medium containing or not containing (control) the compound to be tested and/or the VEGF inductor reference tested at 100 ng/ml; the compound was tested simultaneously in basal and stimulated condition (in the absence and in the presence of VEGF).
The test medium used was as follows: • EBM-2 (Endothelial cell basal medium 2) supplemented with rhEGF, rhFGF, R3 IGF-1, hydrocortisone, vitamin C, gentamycin, • DMEM supplemented with 2 mM L-glutamine, 50 U/ml penicillin, 50 μg/ml streptomycin and 1% FCS.
The cells were then incubated for 7 days, repeating the treatment after incubating for 72 hours. All the experimental conditions were produced in triplicate (n=3).
After incubation, the culture medium was removed and the cells were rinsed, fixed and permeabilized. The cells were then labelled with anti-VWF (Von Willebrand Factor) primary antibody. […] Simultaneously, the cell nuclei were coloured with Hoechst 33258 (bis-benzimide).
The formation of the pseudotubes was observed using a NIKON Diaphot 300 microscope (×4 objective lens). The digital images (1 photo per well) were then recorded with a NIKON DS-Ri1 camera and the NIS-Elements 4.13.04 software.
The labelling was quantified by measuring the entire surface of the pseudotubes using ImageJ software.
The formation of pseudotubes in the co-culture of endothelial cells (HMVECs) and dermal fibroblasts (NHDFs) after incubating for 7 days was measured by image analysis following immunolabelling with an anti-vWF antibody, the vWF being specifically expressed by the HMVEC cells.
The stimulation percentage is calculated according to the following formula: […]
The inhibition percentage is calculated according to the following formula: […]

[1] = VEGF inductor reference 100 ng/ml, 7 days

For VEGF, the “% Control” value [1] was 1759%, the “% Stimulation” value [1] was 1659% and the “Surface of the pseudotubes” value (VEGF inductor reference 100 ng/ml, 7 days, individual wells) was 2.15 mm^2 and 2.52 mm^2 and 1.84 mm^2. For the same substance, the “Average Surface” value (VEGF inductor reference 100 ng/ml, 7 days, n=3) was 2.17 mm^2 and the “Organization of the endothelial cells into pseudotubes” value (reference VEGF 100 ng/ml) was “clearly led to an organization of the endothelial cells into pseudotubes”.
